How the values were obtained:
SEM cells [1] = test: AUC of viability dose-response curve (% viability x log10 dose units); higher = less sensitive; conditions: 48 h
Outline: (§1)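 Library compounds in DMSO were applied for 48 h at 37°C at 11 threefold doses (47 μM to 0.79 nM) to medium-adapted leukemia cells in 1536-well plates holding 500 or 1000 cells/well. Luminescence from CellTiter-Glo One was normalised plate by plate against DMSO and cell-free wells. Area under the curve came from trapezoidal integration of a log-logistic fit, after scaling curves that rose above full viability and discarding those that failed quality control. The fit had four parameters and used log10 doses.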

NOMO1 [2] = test: as above; conditions: 48 h
Outline: as §1

P12-Ichikawa = test: as above; conditions: 48 h
Outline: as §1

NOMO1 [3] = test: cell viability relative to DMSO control; higher = less cytotoxic; conditions: HPLM + 10% dialyzed FBS, 48 h
Outline: (§2)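 Library compounds in DMSO were pin-dosed in an 11-point threefold series (47 μM to 0.79 nM) onto leukemia cells in 1536-well plates (5 μl). Plates held 500 cells/well of NOMO1 or SEM or 1000 cells/well of P12-Ichikawa, each adapted for at least four passages in each medium. Luminescence was read with CellTiter-Glo One after 48 h at 37°C. Viability means the per-plate percentage relative to DMSO wells, using cell-free wells as background.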

SEM cells [4] = test: as above; conditions: 48 h
Outline: as §2

Cc1cccc(-c2n[nH]cc2-c2ccc3ncccc3n2)n1
AUC of viability dose-response curve
Conditions | HPLM + 10% dialyzed FBS | RPMI 5 mM glucose + 10% FBS | RPMI 5 mM glucose + 10% dialyzed FBS
NOMO1 [2] | 447 | 458 | 430
SEM cells [1] | 459 | 449 | 451

OC1=CC(=C(C=C1)\C2=C(O)\C(=O)C3=C(O2)C=C(O)C=C3O)O
Conditions | AUC of viability dose-response curve | cell viability [%]
NOMO1 [2], HPLM + 10% dialyzed FBS | 450 | –
NOMO1 [2], RPMI 5 mM glucose + 10% FBS | 433 | –
NOMO1 [2], RPMI 5 mM glucose + 10% dialyzed FBS | 467 | –
NOMO1 [3], 0.000781 µM | – | 121
NOMO1 [3], 0.00234 µM | – | 118
NOMO1 [3], 0.00702 µM | – | 138
NOMO1 [3], 0.0211 µM | – | 136
NOMO1 [3], 0.0632 µM | – | 120
NOMO1 [3], 0.19 µM | – | 137
NOMO1 [3], 0.569 µM | – | 132
NOMO1 [3], 1.71 µM | – | 119
NOMO1 [3], 5.12 µM | – | 112
NOMO1 [3], 15.4 µM | – | 106
NOMO1 [3], 46.1 µM | – | 71.5
P12-Ichikawa, HPLM + 10% dialyzed FBS | 442 | –
P12-Ichikawa, RPMI 5 mM glucose + 10% FBS | 444 | –
P12-Ichikawa, RPMI 5 mM glucose + 10% dialyzed FBS | 443 | –
SEM cells [1], HPLM + 10% dialyzed FBS | 461 | –
SEM cells [1], RPMI 5 mM glucose + 10% FBS | 459 | –
SEM cells [1], RPMI 5 mM glucose + 10% dialyzed FBS | 465 | –

COC1=CC(=CC(=C1)C2=CC=C3N=CC\4=C(N(C(=O)\C=C4)C5=CC(=C(C=C5)N6CCNCC6)C(F)(F)F)C3=C2)OC
AUC of viability dose-response curve
Conditions | NOMO1 [2] | P12-Ichikawa | SEM cells [1]
HPLM + 10% dialyzed FBS | 387 | 440 | 406
RPMI 5 mM glucose + 10% FBS | 456 | 407 | 414
RPMI 5 mM glucose + 10% dialyzed FBS | 436 | 412 | 413

C[S+](=O)([O-])OCCCCO[S+](C)(=O)[O-]
AUC of viability dose-response curve
Conditions | NOMO1 [2] | P12-Ichikawa | SEM cells [1]
HPLM + 10% dialyzed FBS | 407 | 451 | 440
RPMI 5 mM glucose + 10% FBS | 449 | 438 | 438
RPMI 5 mM glucose + 10% dialyzed FBS | 462 | 450 | 436

SEM cells [4], HPLM + 10% dialyzed FBS
Conditions | cell viability [%]
0.000781 µM | 102
0.00234 µM | 119
0.00702 µM | 134
0.0211 µM | 124
0.0632 µM | 145
0.19 µM | 129
0.569 µM | 142
1.71 µM | 128
5.12 µM | 109
15.4 µM | 89.6
46.1 µM | 43.1

FC1=CC2=C3[N](CCN(CC3=C1)C(=O)N4CCCCC4)C=C2C/5=C(C(=O)NC5=O)\C6=CN=C7C=CC=C[N]67
AUC of viability dose-response curve
Conditions | NOMO1 [2] | P12-Ichikawa | SEM cells [1]
HPLM + 10% dialyzed FBS | 461 | 329 | 168
RPMI 5 mM glucose + 10% FBS | 469 | 298 | 159
RPMI 5 mM glucose + 10% dialyzed FBS | 463 | 367 | 159

SEM cells [4], HPLM + 10% dialyzed FBS
Conditions | cell viability [%]
0.000781 µM | 104
0.00234 µM | 109
0.00702 µM | 118
0.0211 µM | 57
0.0632 µM | 11.5
0.19 µM | 9.31
0.569 µM | 8.55
1.71 µM | 10.7
5.12 µM | 8.69
15.4 µM | 5.56
46.1 µM | 6.04

CC(c1cc2ccccc2s1)N(O)C(N)=O (configuration not stated)
AUC of viability dose-response curve
Conditions | NOMO1 [2] | P12-Ichikawa | SEM cells [1]
HPLM + 10% dialyzed FBS | 474 | 456 | 463
RPMI 5 mM glucose + 10% FBS | 459 | 460 | 459
RPMI 5 mM glucose + 10% dialyzed FBS | 425 | 458 | 448

SEM cells [4], HPLM + 10% dialyzed FBS
Conditions | cell viability [%]
0.000781 µM | 112
0.00234 µM | 130
0.00702 µM | 123
0.0211 µM | 118
0.0632 µM | 129
0.19 µM | 136
0.569 µM | 132
1.71 µM | 120
5.12 µM | 119
15.4 µM | 116
46.1 µM | 73.1

COc1cccc2c1C(=O)c1c(O)c3c(c(O)c1C2=O)C[C@@](O)(C(=O)CO)C[C@@H]3O[C@H]1C[C@H](N)[C@@H](O)[C@H](C)O1
AUC of viability dose-response curve
Conditions | NOMO1 [2] | P12-Ichikawa | SEM cells [1]
HPLM + 10% dialyzed FBS | 369 | 364 | 359
RPMI 5 mM glucose + 10% FBS | 362 | 359 | 309
RPMI 5 mM glucose + 10% dialyzed FBS | 365 | 363 | 327

N=C1S/C(=C\c2ccc(-c3ccc4c(c3)C(=O)NC4=O)o2)C(=O)N1c1ccc(Br)cc1
AUC of viability dose-response curve
Conditions | NOMO1 [2] | P12-Ichikawa | SEM cells [1]
HPLM + 10% dialyzed FBS | 444 | 452 | 453
RPMI 5 mM glucose + 10% FBS | 464 | 443 | 365
RPMI 5 mM glucose + 10% dialyzed FBS | 459 | 448 | 458

O=C(O)/C=C/c1ccc(Cn2ccnc2)cc1
AUC of viability dose-response curve
Conditions | NOMO1 [2] | P12-Ichikawa | SEM cells [1]
HPLM + 10% dialyzed FBS | 469 | 438 | 466
RPMI 5 mM glucose + 10% FBS | 438 | 436 | 471
RPMI 5 mM glucose + 10% dialyzed FBS | 460 | 464 | 473

Nc1ncnc2c1ncn2[C@@H]1O[C@H](CO)[C@@H](O)[C@H]1O
AUC of viability dose-response curve
Conditions | HPLM + 10% dialyzed FBS | RPMI 5 mM glucose + 10% FBS | RPMI 5 mM glucose + 10% dialyzed FBS
NOMO1 [2] | 388 | 402 | 397
SEM cells [1] | 462 | 454 | 463

N[C@@H]1C[C@H]1c1ccccc1
AUC of viability dose-response curve
Conditions | NOMO1 [2] | P12-Ichikawa | SEM cells [1]
HPLM + 10% dialyzed FBS | 464 | 437 | 449
RPMI 5 mM glucose + 10% FBS | 468 | 462 | 456
RPMI 5 mM glucose + 10% dialyzed FBS | 465 | 459 | 457

SEM cells [4], HPLM + 10% dialyzed FBS
Conditions | cell viability [%]
0.000781 µM | 122
0.00234 µM | 115
0.00702 µM | 148
0.0211 µM | 124
0.0632 µM | 107
0.19 µM | 137
0.569 µM | 131
1.71 µM | 119
5.12 µM | 107
15.4 µM | 117
46.1 µM | 109

c1ccc2c(CCNc3ccc(Nc4ccncc4)cc3)c[nH]c2c1
AUC of viability dose-response curve
Conditions | NOMO1 [2] | P12-Ichikawa | SEM cells [1]
HPLM + 10% dialyzed FBS | 426 | 444 | 312
RPMI 5 mM glucose + 10% FBS | 430 | 429 | 282
RPMI 5 mM glucose + 10% dialyzed FBS | 425 | 418 | 308

C/C(O)=C(\C#N)C(=O)Nc1ccc(C(F)(F)F)cc1
AUC of viability dose-response curve
Conditions | NOMO1 [2] | P12-Ichikawa | SEM cells [1]
HPLM + 10% dialyzed FBS | 457 | 454 | 437
RPMI 5 mM glucose + 10% FBS | 470 | 455 | 430
RPMI 5 mM glucose + 10% dialyzed FBS | 436 | 432 | 431

CC1Cc2ccccc2N1NC(=O)c1ccc(Cl)c([S+](N)(=O)[O-])c1 (configuration not stated)
AUC of viability dose-response curve
Conditions | NOMO1 [2] | P12-Ichikawa | SEM cells [1]
HPLM + 10% dialyzed FBS | 467 | 463 | 474
RPMI 5 mM glucose + 10% FBS | 445 | 473 | 426
RPMI 5 mM glucose + 10% dialyzed FBS | 434 | 452 | 472

cell viability [%], SEM cells [4]
Conditions | HPLM + 10% dialyzed FBS | RPMI 5 mM glucose + 10% dialyzed FBS
0.000781 µM | 111 | 107
0.00234 µM | 108 | 109
0.00702 µM | 104 | 117
0.0211 µM | 106 | 106
0.0632 µM | 94.3 | 102
0.19 µM | 113 | 134
0.569 µM | 128 | 100
1.71 µM | 103 | 97
5.12 µM | 112 | 113
15.4 µM | 116 | 111
46.1 µM | 97.9 | 107

— the supplement of paper PMC11451515
